≈ marks a conversion by molar mass, not a printed value. Read-outs that look alike come from different tables or passages of the source.
Legend:
[1] = system: aldose reductase; conditions: prior art statement; cited from earlier work
[2] = i.p. toxicity in Swiss EOPS mice, mortality at 14 days; conditions: mouse, in vivo, ip, DMSO solution at 1/2, read-out: percentages of mortality at the end of 14 days
Experimental: The i.p. toxicities of certain compounds of the present invention were determined using male and female Swiss EOPS mice for administrations in DMSO solution at 1/2 under a volume of P/100.

[3] = system: carragenin edema; assay: Anti-inflammatory activity: carragenin edema test; assay type: in vivo; conditions: Rattus norvegicus, ip, substantially alkaline pH solution, read-out: % inhibition of carragenin edema; for inhibition in vivo at 100 mg/kg: 100 mg/kg i.p.; for inhibition in vivo at 200 mg/kg: 200 mg/kg i.p.; for inhibition in vivo at 300 mg/kg: 300 mg/kg i.p.
How it was run: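 Male Wistar EOPS rats receive 0.1 ml of 5% carragenin suspension in physiological serum into the hind-paw metatarsal muscle, with test substance given i.p. in neutralized solution at the same time. Paw edema is measured by plethysmometry at several times after carragenin and reported as % inhibition against pH-matched physiological serum controls.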

[4] = Solubilities in water; assay type: physicochemical; conditions: water
[5] = system: capillary permeability; assay: Capillaroprotecting effects: capillary permeability; assay type: in vivo, conventional male Wistar rats
Experimental: Capillaroprotecting effects
The capillary permeability was determined by the method of Charlier et al, Arch. Inter. Physiol.

[6] = molecular target: T1, Aldose Reductase (Bos taurus, UniProt P16116); assay: Inhibition of aldose reductase in vitro (enzyme from beef eye lenses, glyceraldehyde substrate); assay type: biochemical; conditions: 5.10^-6 mole/l, in DMF solution
T1 construct: The enzyme is extracted from beef eye lenses; from tissue; host or cells: beef eye lenses
From the text: Inhibition of Aldose Reductase In Vitro
The reoxidation of NADPH coupled to the enzymatic reaction was followed spectrophotometrically at 340 nm.

[7] = molecular target: T2, COMT (Rattus norvegicus, UniProt P22734); assay: Inhibition of COMT in vitro (enzyme from rat liver, 4-nitrocatechol substrate); assay type: biochemical; conditions: in dimethylsulfoxide solution, read-out: percentages of inhibition (COMT)
T2 construct: The enzyme is extracted from rat liver; from tissue; host or cells: rat liver
T2 sequence (P22734 1-221 isoform P22734-2): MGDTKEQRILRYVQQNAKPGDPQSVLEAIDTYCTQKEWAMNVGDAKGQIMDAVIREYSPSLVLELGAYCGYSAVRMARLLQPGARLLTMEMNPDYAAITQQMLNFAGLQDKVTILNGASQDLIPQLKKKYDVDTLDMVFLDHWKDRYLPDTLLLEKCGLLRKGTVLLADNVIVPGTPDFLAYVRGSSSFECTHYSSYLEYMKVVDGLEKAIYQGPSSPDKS
Experimental: Inhibition of COMT in vitro The enzyme is extracted from rat liver by the method described by Axelrod et al, J. Biol. Chem., 233, 702(1958); its activity is measured in the presence of S-adenosyl methionine and using as substrate 4-nitrocatechol by the method described by Lee et al, J. Pharm. Sci., 66(7), 986(1977). The quantity of 4-nitrocatechol consumed was determined spectrophotometrically at 520 nm in alkaline medium.

SMILES: C[C@@H]1O[C@@H](OC[C@H]2O[C@@H](Oc3c(-c4ccc(OCCO)c(OCCO)c4)oc4cc(OCCO)cc(OCCO)c4c3=O)[C@H](O)[C@@H](O)[C@@H]2O)[C@H](O)[C@H](O)[C@H]1O [5,7, 3', 4'-tetra-O-hydroxyethyl rutin]
- inhibition of aldose reductase in vitro (in words) [1]: practically inactive

SMILES: C[C@@H]1O[C@@H](OC[C@H]2O[C@@H](Oc3c(-c4ccc(OCCO)c(OCCO)c4)oc4cc(OCCO)cc(O)c4c3=O)[C@H](O)[C@@H](O)[C@@H]2O)[C@H](O)[C@H](O)[C@H]1O [7, 3', 4'-tri-O-hydroxyethyl rutin]
- inhibition of aldose reductase in vitro (in words) [1]: practically inactive

SMILES: C[C@@H]1O[C@@H](OC[C@H]2O[C@@H](Oc3c(-c4ccc(O)c(O)c4)oc4cc(OCCO)cc(O)c4c3=O)[C@H](O)[C@@H](O)[C@@H]2O)[C@H](O)[C@H](O)[C@H]1O [7-O-hydroxyethyl rutin]
- inhibition of aldose reductase in vitro (in words) [1]: practically inactive

SMILES: COc1ccc(C2CC(=O)c3c(O)cc(O[C@@H]4O[C@H](CO[C@@H]5O[C@@H](C)[C@H](O)[C@H]6OC(C)(C)O[C@@H]56)[C@@H](O)[C@H](O)[C@H]4O)cc3O2)cc1O (stereo partly drawn) [No. 18, 7-O-(2,3-O,O-isopropylidene-6-α-L-rhamnosyl-β-D-glucosyl)hesperitin]
- mortality at 336 h ([2]; 1000 mg/kg i.p.): 0%
- mortality at 336 h ([2]; 2000 mg/kg i.p.): 0%
- inhibition in vivo at 100 mg/kg ([3]; 1/2 h): 0%
- inhibition in vivo at 200 mg/kg ([3]; 1/2 h): 0%
- inhibition in vivo at 300 mg/kg ([3]; 1/2 h): 0%
- inhibition in vivo at 100 mg/kg ([3]; 1 h, 1 h 1/2): 17%
- inhibition in vivo at 100 mg/kg ([3]; 1 h, 1 h): 0%
- inhibition in vivo at 200 mg/kg ([3]; 1 h, 1 h 1/2): 39%
- inhibition in vivo at 200 mg/kg ([3]; 1 h, 1 h): 18%
- inhibition in vivo at 300 mg/kg ([3]; 1 h, 1 h 1/2): 27%
- inhibition in vivo at 300 mg/kg ([3]; 1 h, 1 h): 0%
- inhibition in vivo at 100 mg/kg ([3]; 2 h, 2 h): 16%
- inhibition in vivo at 200 mg/kg ([3]; 2 h, 2 h): 42%
- inhibition in vivo at 300 mg/kg ([3]; 2 h, 2 h): 27%
- inhibition in vivo at 100 mg/kg ([3]; 3 h, 3 h): 13%
- inhibition in vivo at 200 mg/kg ([3]; 3 h, 3 h): 46%
- inhibition in vivo at 300 mg/kg ([3]; 3 h, 3 h): 21%
- inhibition in vivo at 100 mg/kg ([3]; 4 h, 4 h): 20%
- inhibition in vivo at 200 mg/kg ([3]; 4 h, 4 h): 52%
- inhibition in vivo at 300 mg/kg ([3]; 4 h, 4 h): 26%
- inhibition in vivo at 100 mg/kg ([3]; 5 h, 5 h): 21%
- inhibition in vivo at 200 mg/kg ([3]; 5 h, 5 h): 50%
- inhibition in vivo at 300 mg/kg ([3]; 5 h, 5 h): 16%
- inhibition in vivo at 100 mg/kg ([3]; 6 h, 6 h): 27%
- inhibition in vivo at 200 mg/kg ([3]; 6 h, 6 h): 55%
- inhibition in vivo at 300 mg/kg ([3]; 6 h, 6 h): 16%
- solubility ([4]; read-out: Solubilities in water): 900 µg/mL (≈ 1380 µM)
- percentage reduction of capillary permeability ([5]; 10 mg/kg i.p.): 24%
- percentage reduction of capillary permeability ([5]; 50 mg/kg i.p.): 21%
- percentage reduction of capillary permeability ([5]; 75 mg/kg i.p.): 8%

SMILES: C[C@@H]1O[C@@H](OC[C@H]2O[C@@H](Oc3c(-c4ccc(O)c(O)c4)oc4cc(O)cc(O)c4c3=O)[C@H](O)[C@@H](O)[C@@H]2O)[C@H](O)[C@H](O)[C@H]1O [Rutin, rutin, reference compound]
- percentages of inhibition (aldose reductase) [6]: 0%
- inhibition at 1000 µM ([7]; 10^-3 mole/l): 63 to 68%
- inhibition at 10 µM ([7]; 10^-5 mole/l): 13%
- solubility [4]: 120 µg/mL (≈ 197 µM)
- inhibition of aldose reductase in vitro (in words) [1]: inhibits aldose reductase in vitro
